Reference: US20230085307A1, “PYRIDAZINONE COMPOUND AND HERBICIDE” (NISSAN CHEMICAL CORPORATION, priority 2019, published 2023)

How the values were obtained:
green foxtail = test: Test Example 5: herbicidal effect by foliage application, plastic box (Table 20, symbol G); format: in vivo, green foxtail (Setaria viridis); details: foliage application after 14-day growth, evaluated three weeks after application; for Herbicidal effect by foliage application, G: green foxtail: amount of applied herbicide 320 g/ha
In short: (§1)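 Plants were sown into sterilized diluvial soil under about 1.5 cm cover and kept in a greenhouse at 25° C. to 30° C. Fourteen days on, foliage received an even spray of the diluted emulsion. Herbicidal or crop effect was judged three weeks afterwards.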

rice flat sedge = test: Test Example 3: herbicidal effect by foliage application, Wagner pot (Table 18, symbol E); format: in vivo, rice flat sedge (Cyperus iria); details: 320 g/ha
In short: (§2)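 Plants were sown in alluvial soil held under 0.1–0.5 cm standing water and grown 14 days in a greenhouse at 25–30 °C. An emulsifiable formulation, water-diluted to the set dose, was then sprayed onto the foliage, and effects were scored three weeks later using previously defined criteria.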

redroot pigweed = test: Test Example 5: herbicidal effect by foliage application, plastic box (Table 20, symbol N); format: in vivo, redroot pigweed (Amaranthus retroflexus); details: foliage application after 14-day growth, evaluated three weeks after application; for Herbicidal effect by foliage application, N: redroot pigweed: amount of applied herbicide 320 g/ha
In short: as §1

windgrass = test: Test Example 5: herbicidal effect by foliage application, plastic box (Table 20, symbol L); format: in vivo, windgrass (Apera spica-venti); details: foliage application after 14-day growth, evaluated three weeks after application; for Herbicidal effect by foliage application, L: windgrass: amount of applied herbicide 320 g/ha
In short: as §1

lambsquarters = test: Test Example 5: herbicidal effect by foliage application, plastic box (Table 20, symbol O); format: in vivo, lambsquarters (Chenopodium album); details: foliage application after 14-day growth, evaluated three weeks after application; for Herbicidal effect by foliage application, O: lambsquarters: amount of applied herbicide 320 g/ha
In short: as §1

chickweed = test: Test Example 5: herbicidal effect by foliage application, plastic box (Table 20, symbol P); format: in vivo, common chickweed (Stellaria media); details: foliage application after 14-day growth, evaluated three weeks after application; for Herbicidal effect by foliage application, P: chickweed: amount of applied herbicide 320 g/ha
In short: as §1

barnyard grass [1] = test: Test Example 5: herbicidal effect by foliage application, plastic box (Table 20, symbol H); format: in vivo, barnyard grass (Echinochloa crus-galli); details: foliage application after 14-day growth, evaluated three weeks after application; for Herbicidal effect by foliage application, H: barnyard grass: amount of applied herbicide 320 g/ha
In short: as §1

blackgrass = test: Test Example 5: herbicidal effect by foliage application, plastic box (Table 20, symbol J); format: in vivo, blackgrass (Alopecurus myosuroides); details: foliage application after 14-day growth, evaluated three weeks after application; for Herbicidal effect by foliage application, J: blackgrass: amount of applied herbicide 320 g/ha
In short: as §1

persian speedwell = test: Test Example 5: herbicidal effect by foliage application, plastic box (Table 20, symbol R); format: in vivo, Persian speedwell (Veronica persica); details: foliage application after 14-day growth, evaluated three weeks after application; for Herbicidal effect by foliage application, R: persian speedwell: amount of applied herbicide 320 g/ha
In short: as §1

barnyard grass [2] = test: Test Example 3: herbicidal effect by foliage application, Wagner pot (Table 18, symbol H); format: in vivo, barnyard grass (Echinochloa crus-galli); details: 320 g/ha
In short: as §2

Italian ryegrass = test: Test Example 5: herbicidal effect by foliage application, plastic box (Table 20, symbol K); format: in vivo, Italian ryegrass (Lolium multiflorum); details: foliage application after 14-day growth, evaluated three weeks after application; for Herbicidal effect by foliage application, K: Italian ryegrass: amount of applied herbicide 320 g/ha
In short: as §1

wild oat = test: Test Example 5: herbicidal effect by foliage application, plastic box (Table 20, symbol I); format: in vivo, wild oat (Avena fatua); details: foliage application after 14-day growth, evaluated three weeks after application; for Herbicidal effect by foliage application, I: wild oat: amount of applied herbicide 320 g/ha
In short: as §1

southern crabgrass = test: Test Example 5: herbicidal effect by foliage application, plastic box (Table 20, symbol F); format: in vivo, southern crabgrass (Digitaria ciliaris); details: foliage application after 14-day growth, evaluated three weeks after application; for Herbicidal effect by foliage application, F: southern crabgrass: amount of applied herbicide 320 g/ha
In short: as §1

Chinese sprangletop = test: Test Example 3: herbicidal effect by foliage application, Wagner pot (Table 18, symbol D); format: in vivo, chinese sprangletop (Leptochloa chinensis); details: 320 g/ha
In short: as §2

velvetleaf = test: Test Example 5: herbicidal effect by foliage application, plastic box (Table 20, symbol M); format: in vivo, velvetleaf (Abutilon theophrasti); details: foliage application after 14-day growth, evaluated three weeks after application; for Herbicidal effect by foliage application, M: velvetleaf: amount of applied herbicide 320 g/ha
In short: as §1

Row | SMILES | herbicidal effect on rice flat sedge (E) (rice flat sedge) | herbicidal effect on barnyard grass (H) (barnyard grass [2]) | herbicidal effect on Chinese sprangletop (D) (Chinese sprangletop) | Herbicidal effect by foliage application, G: green foxtail (green foxtail) | Herbicidal effect by foliage application, N: redroot pigweed (redroot pigweed) | Herbicidal effect by foliage application, L: windgrass (windgrass) | Herbicidal effect by foliage application, O: lambsquarters (lambsquarters) | Herbicidal effect by foliage application, P: chickweed (chickweed) | Herbicidal effect by foliage application, H: barnyard grass (barnyard grass [1]) | Herbicidal effect by foliage application, J: blackgrass (blackgrass) | Herbicidal effect by foliage application, R: persian speedwell (persian speedwell) | Herbicidal effect by foliage application, K: Italian ryegrass (Italian ryegrass) | Herbicidal effect by foliage application, I: wild oat (wild oat) | Herbicidal effect by foliage application, F: southern crabgrass (southern crabgrass) | Herbicidal effect by foliage application, M: velvetleaf (velvetleaf) | other results
1 | CCCCOc1cccc(-c2sc3c(Cl)cccc3c2-c2c(OC(=O)CCC)c(C)nn(C)c2=O)c1 [4-069] | 3 (Herbicidal rate of 40% or more and less than 70%) | 4 (Herbicidal rate of 70% or more and less than 90%) | 3 (Herbicidal rate of 40% or more and less than 70%) |  |  |  |  |  |  |  |  |  |  |  |  | herbicidal effect on G: green foxtail (evaluation grade 0-5) (green foxtail; 320 g/ha): 0 (Herbicidal rate of 5% or less (almost no effect)); herbicidal effect on N: redroot pigweed (evaluation grade 0-5) (redroot pigweed; 320 g/ha): 0 (Herbicidal rate of 5% or less (almost no effect)); herbicidal effect on L: windgrass (evaluation grade 0-5) (windgrass; 320 g/ha): 0 (Herbicidal rate of 5% or less (almost no effect)); herbicidal effect on O: lambsquarters (evaluation grade 0-5) (lambsquarters; 320 g/ha): 0 (Herbicidal rate of 5% or less (almost no effect)); herbicidal effect on P: chickweed (evaluation grade 0-5) (chickweed; 320 g/ha): 4 (Herbicidal rate of 70% or more and less than 90%); herbicidal effect on H: barnyard grass (evaluation grade 0-5) (barnyard grass [1]; 320 g/ha): 0 (Herbicidal rate of 5% or less (almost no effect)); herbicidal effect on J: blackgrass (evaluation grade 0-5) (blackgrass; 320 g/ha): 0 (Herbicidal rate of 5% or less (almost no effect)); herbicidal effect on R: persian speedwell (evaluation grade 0-5) (persian speedwell; 320 g/ha): 4 (Herbicidal rate of 70% or more and less than 90%); herbicidal effect on K: Italian ryegrass (evaluation grade 0-5) (Italian ryegrass; 320 g/ha): 0 (Herbicidal rate of 5% or less (almost no effect)); herbicidal effect on I: wild oat (evaluation grade 0-5) (wild oat; 320 g/ha): 0 (Herbicidal rate of 5% or less (almost no effect)); herbicidal effect on F: southern crabgrass (evaluation grade 0-5) (southern crabgrass; 320 g/ha): 0 (Herbicidal rate of 5% or less (almost no effect)); herbicidal effect on M: velvetleaf (evaluation grade 0-5) (velvetleaf; 320 g/ha): 0 (Herbicidal rate of 5% or less (almost no effect))
2 | CCCC(=O)Oc1c(C)nn(C)c(=O)c1-c1c(-c2ccccc2OCc2ccccc2)sc2c(Cl)cccc12 [4-085] | 2 (Herbicidal rate of 20% or more and less than 40%) | 2 (Herbicidal rate of 20% or more and less than 40%) | 0 (Herbicidal rate of 5% or less (almost no effect)) | 0 (Herbicidal rate of 5% or less (almost no effect)) | 0 (Herbicidal rate of 5% or less (almost no effect)) | 0 (Herbicidal rate of 5% or less (almost no effect)) | 0 (Herbicidal rate of 5% or less (almost no effect)) | 4 (Herbicidal rate of 70% or more and less than 90%) | 3 (Herbicidal rate of 40% or more and less than 70%) | 0 (Herbicidal rate of 5% or less (almost no effect)) | 2 (Herbicidal rate of 20% or more and less than 40%) | 0 (Herbicidal rate of 5% or less (almost no effect)) | 0 (Herbicidal rate of 5% or less (almost no effect)) | 0 (Herbicidal rate of 5% or less (almost no effect)) | 0 (Herbicidal rate of 5% or less (almost no effect)) | 
3 | CCSc1ccccc1-c1sc2c(Cl)cccc2c1-c1c(O)c(C)nn(C)c1=O [4-090] | 2 (Herbicidal rate of 20% or more and less than 40%) | 5 (Herbicidal rate of 90% or more (almost completely withered)) | 3 (Herbicidal rate of 40% or more and less than 70%) | 3 (Herbicidal rate of 40% or more and less than 70%) | 3 (Herbicidal rate of 40% or more and less than 70%) | 0 (Herbicidal rate of 5% or less (almost no effect)) | 0 (Herbicidal rate of 5% or less (almost no effect)) | 0 (Herbicidal rate of 5% or less (almost no effect)) | 3 (Herbicidal rate of 40% or more and less than 70%) | 0 (Herbicidal rate of 5% or less (almost no effect)) | 1 (Herbicidal rate of 5% or more and less than 20%) | 0 (Herbicidal rate of 5% or less (almost no effect)) | 0 (Herbicidal rate of 5% or less (almost no effect)) | 4 (Herbicidal rate of 70% or more and less than 90%) | 0 (Herbicidal rate of 5% or less (almost no effect)) | 
4 | CCCC(=O)Oc1c(C)nn(C)c(=O)c1-c1c(-c2cccc(SCC)c2)sc2c(Cl)cccc12 [4-093] | 4 (Herbicidal rate of 70% or more and less than 90%) | 5 (Herbicidal rate of 90% or more (almost completely withered)) | 4 (Herbicidal rate of 70% or more and less than 90%) | 2 (Herbicidal rate of 20% or more and less than 40%) | 3 (Herbicidal rate of 40% or more and less than 70%) | 0 (Herbicidal rate of 5% or less (almost no effect)) | 1 (Herbicidal rate of 5% or more and less than 20%) | 1 (Herbicidal rate of 5% or more and less than 20%) | 0 (Herbicidal rate of 5% or less (almost no effect)) | 0 (Herbicidal rate of 5% or less (almost no effect)) | 3 (Herbicidal rate of 40% or more and less than 70%) | 0 (Herbicidal rate of 5% or less (almost no effect)) | 1 (Herbicidal rate of 5% or more and less than 20%) | 0 (Herbicidal rate of 5% or less (almost no effect)) | 3 (Herbicidal rate of 40% or more and less than 70%) | 
5 | CCCC(=O)Oc1c(C)nn(C)c(=O)c1-c1c(-c2ccc(OC)cc2)sc2cc(Cl)c(Cl)cc12 [5-044] | 3 (Herbicidal rate of 40% or more and less than 70%) | 3 (Herbicidal rate of 40% or more and less than 70%) | 3 (Herbicidal rate of 40% or more and less than 70%) | 0 (Herbicidal rate of 5% or less (almost no effect)) | 0 (Herbicidal rate of 5% or less (almost no effect)) | 0 (Herbicidal rate of 5% or less (almost no effect)) | 3 (Herbicidal rate of 40% or more and less than 70%) | 5 (Herbicidal rate of 90% or more (almost completely withered)) | 0 (Herbicidal rate of 5% or less (almost no effect)) | 0 (Herbicidal rate of 5% or less (almost no effect)) | 4 (Herbicidal rate of 70% or more and less than 90%) | 0 (Herbicidal rate of 5% or less (almost no effect)) | 0 (Herbicidal rate of 5% or less (almost no effect)) | 0 (Herbicidal rate of 5% or less (almost no effect)) | 1 (Herbicidal rate of 5% or more and less than 20%) | 
